# From ChEMBL document CHEMBL3507680, “University of Dundee, Gates Library screen for HepG2 cell viability”
# Assay: Human HepG2 cell viability assay in 384 well format
# Type: toxicity, cell-based
# Design: dose 125 nL, time 70.5 hour; cytotoxicity at 70.5 h: concentration not given beside the values
# Settings: HepG2 cells, read-out: Inhibition
row,SMILES,cytotoxicity at 70.5 h [%]
1,CN(C(=O)NCC1(CN2CCOCC2)CCCCC1)C1CC1,-4.71
2,CCCOc1cccc(C(=O)N2CCCC(n3cncn3)C2)c1 (stereo not given),-13.7
3,CN(Cc1ccccc1)C(=O)CS(=O)(=O)Cc1ccc(Cl)c(Cl)c1,-4.65
4,Cn1cc(C2CCCN2C(=O)c2cnc(-c3cccs3)s2)cn1 (stereo not given),22.5
5,CN(C)c1ccc(CCCNC(=O)Nc2ccc(C#N)cc2)cc1,1.4
6,COCC1c2nnn(CC3CC3)c2CCN1C(=O)c1cnccn1 (stereo not given),-13
7,CC1(C)OC(=O)N(CC(=O)N2CCC(c3ccccc3F)C2)C1=O (stereo not given),-3.83
8,CC1CCCN(C(=O)Cn2cc(I)cn2)C1 (stereo not given),-3.76
9,O=C(N1CCOCC1)N1C(CN2CCOCC2)[C@]2(O)CC[C@H]1CC2 (stereo not given in full),3.03
10,c1cncc(COCc2nnc3n2CCN(Cc2ccco2)C3)c1,1.97
11,Cc1cnn(CC2CN(CC(=O)N3CCc4ccccc43)CCO2)c1 (stereo not given),-10.9
12,O=C(C1=CCCC1)N1C[C@H](OCc2cccnc2)[C@H]2OCCC[C@H]21,-9.34
13,COc1ccc(CC(=O)N2CCC(Nc3ccc(C)nn3)CC2)cc1,-3.12
14,COc1ccc(CN(CC2CCCO2)C(=O)CN2CCOC2=O)cc1 (stereo not given),-14.7
15,CCc1nc2n(n1)CC(NCc1cnn(Cc3ccccc3)c1)CC2 (stereo not given),-5.29
16,CCn1nc(C)c(CNC(=O)c2nnc3ccc(Cl)cc3n2)c1C,0.121
17,CCOC(=O)Cc1csc(NC(=O)c2ccc(=O)[nH]n2)n1,-5.3
18,O=C(N[C@@H]1CCN(c2nc3ccccc3o2)C[C@H]1O)c1cnccn1,-9.1
19,CCN1CCN(C(=O)c2cnc3c(cnn3C3CCCC3)c2)CC1,-6.55
20,Cc1n[nH]c(C2CN(C(=O)c3cc(Cl)c[nH]3)CCO2)n1 (stereo not given),-3.9
21,Cc1cnn(C2CCCN(C(=O)C3=NN(C)C(=O)CC3)C2)c1 (stereo not given),22.6
22,Cc1nc2c(c(N3CCCOCC3)n1)CCN(c1nccs1)CC2,-6.82
23,CC(C)c1n[nH]c(C2CN(C(=O)CCCn3cccn3)CCO2)n1 (stereo not given),-3.52

row,SMILES,cytotoxicity at 70.5 h [%]
1,Cc1cc(C)nc(NCc2nnc3n2CCCCC3)n1,13.9
2,C[C@@H]1CN(CCOc2ccc(F)cc2)CC[C@@]1(O)C1CCOCC1,-2.42
3,Cc1ncc2c(n1)CN(Cc1nc3ccccc3o1)CC2,11.4
4,Cc1nccnc1N1C[C@H]2CN(C3CCOCC3)C[C@@]2(C(=O)O)C1,2.61
5,O=C(NC1CCCC1)c1cnn2c(-c3ccco3)ccnc12,-8.37
6,CC(=O)Nc1cc(C(C)(C)C)sc1C#N,-3.4
7,Cc1cnn(CC2CC2)c1NC(=O)c1cccnc1O,14.4
8,CCCNC(=O)COc1ccc(-c2ccccc2)nc1,-5.84
9,CCOC(=O)C1CCCN(Cc2c[nH]nc2-c2cc3ccccc3o2)C1 (stereo not given),18.3
10,Cn1/c(=N/C(=O)CSCC(=O)Nc2nccs2)sc2ccccc21,2.4
11,CCN1CC(COC(=O)c2ccccc2Cl)CC1=O (stereo not given),7.47
12,O=C(Nc1c(N2CCCC2)cccc1N1CCCC1)c1cnccn1,-14.4
13,Cc1csc(N2CCN(C(=O)CCc3nccs3)CC2)n1,-2.43
14,Cc1nccn1C1CCCN(C(=O)CCNc2ncccn2)C1 (stereo not given),-3.44
15,Cn1ccnc1CN1CCC2(CC1)CC(Nc1ccccn1)CO2 (stereo not given),-2.46
16,CCC(NC(=O)c1cnc(N(C)C)nc1C)c1ccncc1 (stereo not given),-6.22
17,CC(C)CN1CCCC1c1cc[nH]n1 (stereo not given),-1.98
18,CCOCC(C)(C)NC(=O)Nc1cc(F)ccc1OC,-5.66
19,CCS(=O)(=O)N1CCCn2nnc(CNC(C)=O)c2C1,7.38
20,CC(C(=O)N(C)Cc1ccc(Br)o1)n1cccn1 (stereo not given),-4.49
21,O=C(CCCNC(=O)C1CCCO1)Nc1ccc(Cl)cc1 (stereo not given),17.1
22,N#CCCN(c1ccc(F)cc1)S(=O)(=O)CC1CCCCO1 (stereo not given),-1.6
23,COCCn1cc(C(=O)N2CCCC2c2ccccc2C)ccc1=O (stereo not given),-7.56

row,SMILES,cytotoxicity at 70.5 h [%]
1,Cc1cc(CN(C)C(=O)NC(C)Cc2ccco2)no1 (stereo not given),-3.4
2,Cc1nc(NCc2noc(C3CCCO3)n2)c2ccsc2n1 (stereo not given),26.9
3,O=C(NCC1CC(=O)N(CCc2ccccc2)C1)c1ccon1 (stereo not given),-3.55
4,CCn1c(C)nnc1SCCNc1cc(COC)ncn1,-22.7
5,Cc1nc(NS(=O)(=O)c2cc(Br)ccc2C)no1,-11.8
6,O=C(C1CCOC1)N1CC[C@@H](O)[C@@H]1Cc1ccccc1 (stereo not given in full),-12.1
7,O=C(N1CCCC1)C1(Cc2ccc(-c3cccs3)cc2)CCNC1 (stereo not given),2.43
8,c1cc(COC[C@@H]2CCC[C@@]23CNCCO3)ccn1,8.32
9,Cc1ccccc1SC1CCN(C(=O)C2CNCC(=O)N2)CC1 (stereo not given),-1.6
10,CCC(NC(=O)NCc1cccc(N(C)C)n1)c1nccs1 (stereo not given),32.1
11,CC1CCN(c2ccnc3ccc(Br)cc23)CC1,2
12,C=C(C)COc1ccccc1CN1CCCC(C(=O)NCCCO)C1 (stereo not given),-8.32
13,CN(CCc1cnn(C)c1)C(=O)CN1C(=O)OC[C@@H]1c1ccccc1,-5.22
14,CCc1n[nH]c(=O)c(C(=O)N2CCSC(C)(C)C2)c1CC,-10.1
15,Cc1cc(C)nc(C2CCN(c3ccncn3)C2)n1 (stereo not given),-2.27
16,CN(Cc1ccc([S+](C)[O-])cc1)c1ccccn1 (stereo not given),-10.9
17,CC(c1nnc(-c2ccccc2)o1)N1CCC(Nc2ccccc2)CC1 (stereo not given),8.58
18,CN(Cc1ccco1)C(=O)NC(Cn1ccnc1)C(C)(C)C (stereo not given),-5.15
19,CCOc1ccccc1OC1CCN(C(=O)c2nc(=O)[nH][nH]2)CC1,27.9
20,Cc1nc(CN2CCCn3c(nc(Cn4ccnc4)cc3=O)C2)cs1,-21.2
21,O=C(c1sccc1C1CC1)N1CCCN(c2cccnn2)CC1,-7.16
22,COCCC(=O)N1CCC2(CCN(Cc3ccc(OC)c(F)c3)C2)C1 (stereo not given),-93.9
23,c1cncc(OC[C@@H]2CCC[C@@]23CN(Cc2nccs2)CCO3)c1,-2.19

row,SMILES,cytotoxicity at 70.5 h [%]
1,CCc1nc(C2CCCN2CCC(=O)N2CCc3ccccc32)no1 (stereo not given),20.5
2,Cc1cccnc1CN(C)C(C(=O)O)c1ccc(-n2cccn2)cc1 (stereo not given),-2.91
3,CC(C)c1n[nH]c(C2CN(C(=O)c3cc(C4CC4)[nH]n3)CCO2)n1 (stereo not given),-10.5
4,Cc1nccn1C1CCCN(C(=O)c2ccc3cc[nH]c3c2)C1 (stereo not given),-1.7
5,CCCc1nc(C(=O)N[C@H]2COC[C@@H]2N2CCN(C)CC2)cs1,-7.8
6,CC(=O)c1ccc(CNC(=O)c2cc(C)nn2C)nc1C,3.42
7,CCc1n[nH]c(C2CN(C(=O)c3cncnc3CC)CCO2)n1 (stereo not given),0.869
8,Cc1cc(C)c(CNC(=O)N2CCC(N3CCNC3=O)CC2)c(C)c1,-7.95
9,CN(C)[C@@H]1CN(C(=O)c2ccc3ccccc3n2)C[C@H]1O,-7.72
10,CCOCC1CCN(C(=O)c2sc(C)cc2OC(F)F)CC1,-5.96
11,Cn1ccc(C(=O)N2C[C@@H]3CCN(c4cccnc4)C[C@@H]3C2)n1,-4.89
12,O=C(NCc1cccs1)[C@H]1CC[C@@H]2[C@@H](CCN2c2ncccn2)O1,2.87
13,CCN(C)[C@H]1CN(C(=O)c2cccc(N3CCS(=O)(=O)CC3)c2)C[C@@H]1O,-7.37
14,Cc1c(F)cc(C(=O)NCC(F)(F)F)cc1NCC(=O)N(C)C,10.3
15,CC(NCc1ccsc1)c1ccc2c(c1)NC(=O)CO2 (stereo not given),-13.9
16,NC(=O)C1(c2cnccn2)CCCN1C(=O)Cc1ccsc1 (stereo not given),-5.34
17,Clc1cc(CN2CCCC2Cn2cncn2)c2ncccc2c1 (stereo not given),-20.8
18,Cc1noc(C)c1S(=O)(=O)N1CCC(Oc2cnccn2)CC1,11.2
19,CCN1CCOCC2(CCCN(C(=O)c3conc3C)C2)C1 (stereo not given),-1.18
20,Cn1cncc1CN1CCCC1c1cncc(Oc2ccc(F)cc2)n1 (stereo not given),-10.5
21,CC(CN1CCOCC1)NC(=O)NCc1ccc(Cl)s1 (stereo not given),-7.44
22,CN1CCN(Cc2ccncc2)Cc2cccnc21,-9.78
23,COc1c(C(=O)N2CCC(CSc3ccccc3)C2)c(C)nn1C (stereo not given),1.84

row,SMILES,cytotoxicity at 70.5 h [%]
1,O=C(c1cccc2cn[nH]c12)N1CCCC1c1noc(C2CC2)n1 (stereo not given),-2.84
2,CN(C)C(C(=O)N1CCN(CCn2cccc2)CC1)c1ccc(F)cc1 (stereo not given),-3.42
3,Cn1ncc2c(N3CCCN(C(=O)c4ccsc4)CC3)ncnc21,-1.19
4,CCc1cc(NC(=O)C(c2cccc(F)c2)N2CCOCC2)[nH]n1 (stereo not given),-4.49
5,CC(C)C(=O)Nc1ccc(Sc2nncn2C)c(Cl)c1,-16
6,CC(C)c1nnsc1CN1CCc2[nH]nc(-c3ccc(Cl)cc3)c2C1,9.53
7,O=S(=O)(c1ccccc1)N1CCN(Cc2ccc(F)cc2Br)CC1,-8.77
8,Cc1nn(C)c(N(C)C)c1CNC(C)c1cccc(OC(C)C)c1 (stereo not given),-11.2
9,COC(=O)c1sc2cccc(F)c2c1CNC(=O)C1CCOC1 (stereo not given),-2.33
10,CC(Cn1cccn1)NC(=O)NCCc1ccc(Cl)s1 (stereo not given),-5.79
11,Cc1cc(C)cc(NC(=O)Nc2c(O)oc3ccccc3c2=O)c1,-6.68
12,CCc1c(C)nc2n(c1=O)CC(C(=O)NCc1cccs1)CS2 (stereo not given),23
13,O=C(c1cscn1)N1CCc2ncnc(-c3cccnc3)c2CC1,18.5
14,Cc1cccc(N2CCC(N3CCC4(CN(C)C(=O)O4)C3)CC2)c1C (stereo not given),-9.4
15,Cc1ccc(N2CCCC(NCC(=O)NC3CCOCC3)C2)nn1 (stereo not given),-3.6
16,Cc1cc(CN(CCO)Cc2cc(Br)ccc2F)no1,-17.4
17,CC(NCC1CCN(CCO)CC1)c1cccnc1 (stereo not given),28.1
18,Cc1nnc(C2Cc3ccccc3CN2Cc2nc(C3CC3)no2)o1 (stereo not given),-5.34
19,Cn1nc(C(=O)N(CC(F)(F)F)c2cccc(Cl)c2)ccc1=O,9.92
20,Cc1cc(CCC2CN(Cc3ccccc3C(=O)O)CCO2)ncn1 (stereo not given),-3.08
21,Cc1cc(C)c2c(N3CCCN(C(=O)C4CCC4)CC3)ncnc2n1,-6.75
22,CN1CCN(C(=O)c2cc3sccc3n2Cc2ccccc2)CC1,-6.85
23,CC(=O)N1CCCN(C(=O)Cc2c(C)nc(C)[nH]c2=O)CC1,-0.651
